What was measured:
[1] = system: inflammatory cytokine IL-6; assay: Inflammatory cytokine IL-6-reducing effect in LPS-treated Raw 264.7 cells; type: cell-based, mouse; settings: 100 ng/mL LPS, 24-hr culture, maximum decrease (up to) relative to LPS-treated group, FIG. 5
Procedure: The inflammatory cytokine IL-6-reducing effect of the composition including substance P was examined in Raw 264.7 cells which are mouse macrophages. […] were put in a 24-well plate at a density of 4×10^5 CFU/well, and incubated at 37° C. for 24 hours. A growth medium for Raw 264.7 cells was prepared by mixing DMEM (Welgene, Korea) with 200 mM of L-glutamine (Gibco, USA). After 24-hr culture, the medium was removed, and then 1 mL of a fresh medium was dispensed into each well. To induce intracellular inflammation, 100 ng/mL of LPS (Sigma, USA) was treated thereto, and simultaneously, the composition including substance P or substance P dissolved in a phosphate buffer solution (PBS) was dispensed thereto such that the final volume was 2 mL/well, followed by incubation at 37° C. for 24 hours. In this regard, the concentration of the composition or the substance P added was determined such that its final concentration became a desired concentration, taking into consideration the total volume of the medium. After 24-hr culture, the supernatant was collected, and the amount of inflammatory cytokine IL-6 in the medium was measured by mouse IL-6 immunoassay (R&D systems, USA).
Significant IL-6 reduction was determined using Student's t-test by comparing the IL-6 amount practically measured in the experimental group with that of the LPS-treated group (*p<0.05, **p<0.01).

collagenase (MMP-1) = assay: Collagenase (MMP-1) inhibition effect in skin fibroblasts (Human total MMP-1 kit); type: cell-based; settings: 24-hr culture, maximum decrease (up to) relative to PBS control, FIG. 4
Procedure: (§1) The collagenase (MMP-1) inhibition effect of the composition including substance P was examined in skin fibroblasts. Human skin fibroblasts were put in a 96-well plate at a density of 3×10^4 CFU/well, and incubated at 37° C. for 24 hours. The medium (FGM, Lonza, USA) was removed, and then 180 μL of a fresh medium was dispensed into each well, and 20 μL of the composition including substance P or substance P dissolved in a phosphate buffer solution (PBS) was added thereto, followed by incubation at 37° C. for 24 hours. In this regard, the concentration of the composition or the substance P added was determined such that its final concentration became a desired concentration, taking into consideration the total volume of the medium. After 24-hr culture, the supernatant was collected, and the amount of collagenase (MMP-1) in the medium was measured using a Human total MMP-1 kit (R&D systems, USA).
(§2) The difference was statistically significant. Statistical analysis was performed using Student's t-test, and the MMP-1 production of each experimental group (*p<0.05, **p<0.01) relative to the control (phosphate buffer solution-treated group) and the MMP-1 productions by substance P dissolved in phosphate buffer solution and the composition of the present invention (#p<0.05, ##p<0.01) were compared.

nitric oxide (NO) = assay: Nitric oxide (NO)-reducing effect in LPS-treated Raw 264.7 cells (Griess reagent); type: cell-based, mouse; settings: 100 ng/mL LPS, 24-hr culture, maximum decrease (up to), LPS only = 100%, FIG. 6
Procedure: In inflammatory environments, the nitric oxide (NO)-reducing effect of the composition including substance P was examined in Raw 264.7 cells which are mouse macrophages. […] were put in a 24-well plate at a density of 4×10^5 CFU/well, and incubated at 37° C. for 24 hours. A growth medium for Raw 264.7 cells was prepared by mixing DMEM (Welgene, Korea) with 200 mM of L-glutamine (Gibco, USA). After 24-hr culture, the medium was removed, and then 1 mL of a fresh medium was dispensed into each well. […] In this regard, the concentration of the composition or the substance P added was determined such that its final concentration became a desired concentration, taking into consideration the total volume of the medium.
After 24-hr culture, the supernatant was collected, and 100 μL thereof was added to a 96-well plate, and an equal volume of Griess reagent (Sigma, USA) was added thereto, and the plate was left at room temperature for 15 minutes. Then, absorbance at 540 nm was measured. […] The production amount of nitric oxide (NO) in the group treated with LPS only was regarded as 100%, and the amount of nitric oxide (NO) in the medium was determined.
Significant NO reduction was determined using Student's t-test by comparing the NO amount practically measured in the experimental group with that of the LPS-treated group (*p<0.05, **p<0.01).

[2] = system: collagen synthesis in Human skin fibroblasts; assay: Collagen synthesis effect in skin fibroblasts (Procollagen Type1-Peptide EIA); type: cell-based; settings: 24-hr culture, maximum increase (up to) relative to PBS control, FIG. 3
Procedure: as §1, with “collagen synthesis” for “collagenase (MMP-1) inhibition”, “containing” for “including”, “collagen” for “collagenase (MMP-1)”, “Procollagen Type1-Peptide (PIP) EIA” for “Human total MMP-1”, “(TaKaRa, Japan).” for “(R&D systems, USA).”
as §2, with “the effects” for “the MMP-1 production”, “of” for “of each”, “experimental groups” for “experimental group”, “the effects of” for “the MMP-1 productions by”, “(#p<0.05, ##<0.01)” for “(#p<0.05, ##p<0.01)”

Question: Which “decrease of amount of IL-6 induced by LPS” value [1] does the source give for “Arg-Pro-Lys-Pro-Gln-Gln-Phe-Phe-Gly-Leu-Met-NH2 [substance P]” here?
Answer: about 20%

Question: And the “collagenase (MMP-1) production decrease” value (collagenase (MMP-1))?
Answer: about 20%

Question: And the “decrease of amount of NO induced by LPS” value (nitric oxide (NO))?
Answer: about 10%

Question: And the collagen synthesis increase [2]?
Answer: about 20%
